Measurements: ChEMBL document CHEMBL5725377, “BET bromodomain inhibitors and therapeutic methods using the same” (2017)
pKi: −log10 of the molar value.

What was measured:
[1] = target: T1, Bromodomain-containing protein 2 (Homo sapiens, UniProt P25440); assay: (§1) FP Competitive Binding Assay (No.350): Fluorescence Polarization (FP) competitive binding studies (see above) were carried out using the FAM labeled fluorescent probe Cpd. No. 350 to determine binding affinities of representative compounds to both BD1 and BD2 of BRD2, BRD3, and BRD4 proteins. Equilibrium dissociation constants (Id) values of Cpd. […] Final Cpd. […] Kd values of Cpd.
[2] = target: T2, Bromodomain-containing protein 3 (Homo sapiens, UniProt Q15059); assay: as §1
[3] = target: Bromodomain-containing protein 4 (Homo sapiens, UniProt O60885); assay: as §1
[4] = target: T2, Bromodomain-containing protein 3; assay: as §1; remark: listed apart in the source
[5] = target: T1, Bromodomain-containing protein 2; assay: as §1; remark: listed apart in the source

T1 sequence (P25440 whole entry): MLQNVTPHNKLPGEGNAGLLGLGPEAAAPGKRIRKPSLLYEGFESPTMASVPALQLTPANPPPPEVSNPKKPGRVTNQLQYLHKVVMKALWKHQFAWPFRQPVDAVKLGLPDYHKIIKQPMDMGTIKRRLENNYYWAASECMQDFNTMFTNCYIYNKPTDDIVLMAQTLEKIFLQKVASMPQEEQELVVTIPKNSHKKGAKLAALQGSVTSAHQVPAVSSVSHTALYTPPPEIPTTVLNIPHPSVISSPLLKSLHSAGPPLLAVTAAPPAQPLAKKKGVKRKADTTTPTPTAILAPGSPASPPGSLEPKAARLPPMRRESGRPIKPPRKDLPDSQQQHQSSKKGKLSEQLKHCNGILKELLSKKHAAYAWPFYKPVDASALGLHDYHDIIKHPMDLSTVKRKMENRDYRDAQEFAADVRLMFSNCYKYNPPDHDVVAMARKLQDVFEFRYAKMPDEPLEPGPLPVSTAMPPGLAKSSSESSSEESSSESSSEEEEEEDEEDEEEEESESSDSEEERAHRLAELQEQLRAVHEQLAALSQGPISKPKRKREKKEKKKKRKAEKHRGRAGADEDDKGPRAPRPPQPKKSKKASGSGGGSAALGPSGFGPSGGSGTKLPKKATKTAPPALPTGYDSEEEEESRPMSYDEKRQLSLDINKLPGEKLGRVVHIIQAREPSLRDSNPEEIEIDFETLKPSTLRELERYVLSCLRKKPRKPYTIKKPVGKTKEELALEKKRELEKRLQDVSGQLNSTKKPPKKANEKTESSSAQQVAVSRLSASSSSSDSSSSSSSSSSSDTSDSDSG
T2 sequence (Q15059 whole entry): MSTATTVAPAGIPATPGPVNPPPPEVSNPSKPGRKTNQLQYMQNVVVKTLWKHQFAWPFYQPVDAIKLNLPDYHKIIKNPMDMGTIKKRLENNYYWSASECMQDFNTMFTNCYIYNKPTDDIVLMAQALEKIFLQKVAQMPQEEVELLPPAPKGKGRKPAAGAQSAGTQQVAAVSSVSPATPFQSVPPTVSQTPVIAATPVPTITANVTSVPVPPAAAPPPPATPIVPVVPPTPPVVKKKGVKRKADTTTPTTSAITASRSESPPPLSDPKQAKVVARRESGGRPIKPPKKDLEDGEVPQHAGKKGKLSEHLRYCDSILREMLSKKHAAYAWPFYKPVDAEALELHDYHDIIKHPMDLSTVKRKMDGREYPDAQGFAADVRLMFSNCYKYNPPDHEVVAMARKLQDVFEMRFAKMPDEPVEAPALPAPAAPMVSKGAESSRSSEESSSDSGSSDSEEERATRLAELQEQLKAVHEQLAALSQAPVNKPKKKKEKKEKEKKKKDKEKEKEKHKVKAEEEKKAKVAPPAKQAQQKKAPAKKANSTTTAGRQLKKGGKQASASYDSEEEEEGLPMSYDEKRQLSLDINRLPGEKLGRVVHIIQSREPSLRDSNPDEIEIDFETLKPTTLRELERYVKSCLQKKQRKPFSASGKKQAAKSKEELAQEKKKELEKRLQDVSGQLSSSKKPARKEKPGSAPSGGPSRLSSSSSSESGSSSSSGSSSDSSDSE

SMILES | pKi [1] | pKi [2] | pKi [3] | pKi [4] | pKi [5]
COc1cc2c(cc1-c1c(C)noc1C)[nH]c1nc(C)nc(-c3cc(C(=O)NC4CCN(C)CC4)cc(C(C)(C)C)c3)c12 | 8.66 | 8.20 | 8.05 | 8.96 | 8.28
COc1cc2c(cc1-c1c(C)noc1C)[nH]c1nc(C)nc(-c3ccc(NC(=O)N4CCN(C)CC4)c4ccccc34)c12 | 8.34 | 8.12 | 7.96 | 9.09 | 8.59
COc1cc2c(cc1-c1c(C)noc1C)[nH]c1nc(C)nc(-c3ccc(NC(=O)N4CCN(C5COC5)CC4)c4ccccc34)c12 | 7.77 | 7.64 | 7.41 | 8.46 | 8.11
